Experimental data as given in patent US12403136B2, “Cannabinoid derivatives as pharmaceutically active compounds and methods of preparation thereof” (JAZZ PHARMACEUTICALS RESEARCH UK LIMITED, priority 2019, dated 2025).

Tested on: mouse model of generalised seizure (tonic hind limb extensor convulsions)
Experiment: Maximal electroshock seizure threshold (MEST) test in the mouse
Details: for % change from vehicle: change in CC50; for CC50 +/− SEM: vehicle CC50 21.0 mA
Method: The efficacy of exemplary cannabinoid derivatives according to Formula I and Formula II were tested in a mouse model of generalised seizure, the maximal electroshock seizure threshold (MEST) test.
The maximal electroshock seizure threshold (MEST) test is widely utilized preclinically to evaluate pro- or anti-convulsant properties of test compounds (Loscher et al., 1991).
In the MEST test the ability of a drug to alter the seizure threshold current required to induce hind limb tonic extensor convulsions is measured according to an “up and down” method of shock titration (Kimball et al., 1957). An increase in seizure threshold is indicative of anti-convulsant effect.
Conversely, a reduction in seizure threshold is indicative of a pro-convulsant effect as observed with known convulsant agents such as picrotoxin.
The ability of a test compound to alter the stimulus intensity, expressed as current (mA), required to induce the presence of tonic hind limb extensor convulsions, is assessed in the MEST.
Naïve mice were acclimatised to the procedure room in their home cages for up to 7 days, with food and water available ad libitum.
All animals were weighed at the beginning of the study and randomly assigned to treatment groups based on a mean distribution of body weight across groups.
The first animal within a treatment group was given a shock at the expected or estimated CC50 current. For subsequent animals, the current was lowered or raised depending on the convulsions outcome from the preceding animal.
Data generated from each treatment group were used to calculate the CC50±SEM values for the treatment group.
Vehicle: (5% ethanol, 5% solutol in 90% Saline) was prepared as follows: 2 mL of ethanol, 2 mL of solutol were warmed to 60° C., in 36 mL of saline (1:1:18).
The test compounds used were 12a, 12b, 18a and 18b. Test compounds were administered at 200 mg/kg (i.p.) in a 1:1:18 ethanol:solutol:saline formulation.
The data for each treatment group were recorded as the number of +'s and 0's at each current level employed and this information is then used to calculate the CC50 value (current required for 50% of the animals to show seizure behaviour)±standard error.
Test compound effects were also calculated as percentage change in CC50 from the vehicle control group.
Significant difference between drug-treated animals and controls were assessed according to Litchfield and Wilcoxon (1949).

[1] = 200 mg/kg i.p., 120 min post dose
[2] = 200 mg/kg i.p., test 120 min post dose

For `C=C(C)[C@@H]1CCC(C)=C[C@H]1c1c(O)cc2c(c1O)[C@H](CC)CCC2` [Compound 12a], the “% change from vehicle” value (200 mg/kg i.p., 60 min post dose) was 157% and the “CC50 +/− SEM” value (200 mg/kg i.p., test 60 min post dose) was 54.0 +/− 0.2 mA.

`C=C(C)[C@@H]1CCC(C)=C[C@H]1c1c(O)cc2c(c1O)[C@H](CC)CCO2` [Compound 12b] was tested, and the “% change from vehicle” value (200 mg/kg i.p., 30 min post dose) was 109% and the “CC50 +/− SEM” value (200 mg/kg i.p., test 30 min post dose) was 43.8 +/− 0.2 mA.

In the case of `C=C(C)[C@@H]1CCC(C)=C[C@H]1c1c(O)cc(O)c2c1CCC[C@H]2CC` [Compound 18a], the “% change from vehicle” value [1] is reported as 99% and the “CC50 +/− SEM” value [2] is reported as 41.8 +/− 0.5 mA.

For `C=C(C)[C@@H]1CCC(C)=C[C@H]1c1c(O)cc(O)c2c1OCC[C@H]2CC` [Compound 18b], the “% change from vehicle” value [1] was 92% and the “CC50 +/− SEM” value [2] was 40.3 +/− 0.8 mA.

In the case of `CN1C(=O)CN=C(c2ccccc2)c2cc(Cl)ccc21` [Diazepam, diazepam, reference compound], the “% change from vehicle” value (diazepam 2.5 mg/kg i.p., 30 min post dose) is reported as 66%.
